US7169778B2, “Pteridinones as kinase inhibitors” (Warner-Lambert Company, priority 1999, dated 2007)

Legend:
[1] = target: T1, mouse PDGF-β receptor tyrosine kinase (Mus musculus, UniProt P05622); experiment: PDGF receptor tyrosine kinase assay; assay type: biochemical
T1 construct: amplify a fragment of DNA that codes for the intracellular tyrosine kinase domain; made in house; host or cells: SF9 insect cells (baculovirus)
From the text: (§1) Full-length cDNAs for the mouse PDGF-β and human FGF-1 (flg) receptor tyrosine kinases were obtained from J. Escobedo and prepared as described in J. Biol. Chem., 1991;262:1482–1487. PCR primers were designed to amplify a fragment of DNA that codes for the intracellular tyrosine kinase domain. The fragment was inserted into a baculovirus vector, cotransfected with AcMNPV DNA, and the recombinant virus isolated. SF9 insect cells were infected with the virus to overexpress the protein, and the cell lysate was used for the assay. Assays were performed in 96-well plates (100 μL/incubation/well), and conditions were optimized to measure the incorporation of ^32P from γ^32P-ATP into a glutamate-tyrosine co-polymer substrate. Briefly, to each well was added 82.5 μL of incubation buffer containing 25 mM Hepes (pH 7.0), 150 mM NaCl, 0.1% Triton X-100, 0.2 mM PMSF, 0.2 mM Na3VO4, 10 mM MnCl2, and 750 μg/mL of Poly (4:1) glutamate-tyrosine followed by 2.5 μL of inhibitor and 5 μL of enzyme lysate (7.5 μg/μL FGF-TK or 6.0 μg/μL PDGF-TK) to initiate the reaction. Following a 10 minute incubation at 25° C., […] of γ^32P-ATP (0.4 μCi plus 50 μM ATP) was added to each well, and samples were incubated for an additional 10 minutes at 25° C. The reaction was terminated by the addition of 100 μL of 30% TCA containing 20 mM sodium pyrophosphate and precipitation of material onto glass fiber mats (Wallac). Filters were washed three times with 15% TCA containing 100 mM sodium pyrophosphate, and the radioactivity retained on the filters counted in a Wallac 1250 Betaplate reader. Nonspecific activity was defined as radioactivity retained on the filters following incubation of samples with buffer alone (no enzyme). Specific enzymatic activity (enzyme plus buffer) was defined as total activity minus nonspecific activity. The concentration of a compound that inhibited specific activity by 50% (IC50) was determined based on the inhibition curve.

[2] = target: N-terminal truncated Wee 1 (Homo sapiens, UniProt P30291); experiment: Wee 1 OY kinase assay; assay type: biochemical; conditions: read-out: WEE1OY IC50
Chain of N-terminal truncated Wee 1 (P30291 299-569 limits assumed): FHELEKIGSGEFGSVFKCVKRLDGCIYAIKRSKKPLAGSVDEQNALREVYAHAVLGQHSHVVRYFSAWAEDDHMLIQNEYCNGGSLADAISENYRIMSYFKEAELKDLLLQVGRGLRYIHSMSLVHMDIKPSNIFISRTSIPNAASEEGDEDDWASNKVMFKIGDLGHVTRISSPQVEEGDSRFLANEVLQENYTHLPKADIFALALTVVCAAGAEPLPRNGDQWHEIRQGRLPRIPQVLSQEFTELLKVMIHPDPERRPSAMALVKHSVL
Experimental: These kinase assays are carried out on 96-well filter plates (Millpore, Cat. MADPN0B50) in 50 μL kinase assay buffer (50 mM Tris, pH 8.0, 10 mM NaCl, 10 mM MgCl2, 10 μM ATP with 0.25 μCi [r-32P]ATP, 1 mM DTT) with 0.1 μg purified N-terminal truncated Wee 1 and 6 μg poly(Orn, Tyr)4:1 (Sigma, P4534). The assay is started by adding ATP and incubating at room temperature for 20 minutes with shaking. The reactions are terminated by adding 50 μL ice-cold 20% TCA (trichloracetic acid) with 0.1 M sodium pyrophosphate and shaking the resultant mixture for 1 minute. The plate is then incubated at 4° C. for 1 hour to allow protein to precipitate. These plates are then washed 5 times with 200 μL ice-cold 10% TCA and with 0.1 M sodium pyrophosphate per wash. Twenty-five microliters scintillation liquid is then added to each well, and the plate is counted in Wallac's MicroBeta counter 1450.

[3] = target: cdk4/cyclin D1 complex (Homo sapiens, UniProt P11802); experiment: Cyclin-dependent kinase 4 (CDK4) assay; assay type: biochemical; conditions: cyclin dependent kinase 4/cyclin D1 complex; read-out: CDK4D IC50
Chain of cdk4/cyclin D1 complex (P11802 whole entry, species assumed): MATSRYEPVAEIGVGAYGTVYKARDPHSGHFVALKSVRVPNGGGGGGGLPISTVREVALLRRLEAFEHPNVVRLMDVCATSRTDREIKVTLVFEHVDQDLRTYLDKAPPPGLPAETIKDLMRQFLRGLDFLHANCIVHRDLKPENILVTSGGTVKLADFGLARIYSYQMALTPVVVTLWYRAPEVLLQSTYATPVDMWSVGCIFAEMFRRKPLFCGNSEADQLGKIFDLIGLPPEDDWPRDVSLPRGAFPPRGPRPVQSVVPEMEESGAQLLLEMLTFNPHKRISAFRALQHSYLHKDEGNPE
Chain of cdk4/cyclin D1 complex (P24385 whole entry partner, species assumed): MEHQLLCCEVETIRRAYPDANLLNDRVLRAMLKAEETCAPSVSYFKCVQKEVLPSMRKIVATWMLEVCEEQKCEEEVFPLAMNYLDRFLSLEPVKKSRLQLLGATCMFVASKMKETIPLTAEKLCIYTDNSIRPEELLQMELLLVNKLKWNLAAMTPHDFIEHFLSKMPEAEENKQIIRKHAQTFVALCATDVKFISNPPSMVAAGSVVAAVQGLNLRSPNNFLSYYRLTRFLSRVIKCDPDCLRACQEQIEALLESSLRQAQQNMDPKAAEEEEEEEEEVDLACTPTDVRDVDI
Experimental: Enzyme assays for IC50 determinations (Table 1) and kinetic evaluation were performed in 96-well filter plates (Millipore MADVN6550) The total volume was 0.1 mL containing a final concentration of 20 mM TRIS (tris[hydroxmethyl]aminomethane), at pH 7.4, 50 mM NaCl, 1 mM dithiothreitol, 10 mM mgCl2, 25 μM ATP containing 0.25 μCi of [^32P]ATP, 20 ng of cdk4/cyclin D1 complex, 1 μg of retinoblastoma and appropriate dilutions of a compound of the present invention. All components except the ATP were added to the wells, and the plate was placed on a plate mixer for 2 minutes. The reaction was started by adding [^32P]ATP and the plate incubated at 25° C. for 15 minutes. The reaction was terminated by addition of 0.1 mL of 20% TCA. The plate was kept at 4° C. for at least 1 hour to allow the substrate to precipitate. The wells were then washed five times with 0.2 mL of 10% TCA and ^32p incorporation determined with a beta plate counter (Wallac Inc., Gaithersburg, Md.).

[4] = target: cdk2/cyclinA (Homo sapiens, UniProt P24941); experiment: Cyclin-dependent kinase assay cdk2/cyclinA; assay type: biochemical; conditions: cyclin dependent kinase 2/cyclin A complex; read-out: CDK2A IC50
Experimental: (§2) All components except the ATP were added to the wells, and the plate was placed on a plate mixer for 2 minutes. The reaction was begun by addition of [^32P]ATP, and the plate was incubated at 25° C. for 15 minutes. The reaction was terminated by addition of 0.1 mL of 20% TCA. The plate was kept at 4° C. for at least 1 hour to allow the substrate to precipitate. The wells were then washed five times with 0.2 mL of 10% TCA and ^32P incorporation determined using a beta plate counter (Wallac Inc., Gaithersburg, Md.).

[5] = target: T2, human FGF-1 (flg) receptor tyrosine kinase (Homo sapiens, UniProt P11362); experiment: FGF receptor tyrosine kinase assay; assay type: biochemical; conditions: read-out: FGF % @ concentration; for inhibition at 0.5 µM: @ 0.5 (unit μm); for inhibition at 5 µM: @ 5 (unit μm)
T2 construct: amplify a fragment of DNA that codes for the intracellular tyrosine kinase domain; made in house; host or cells: SF9 insect cells (baculovirus)
T2 sequence (P11362 478-767 limits assumed): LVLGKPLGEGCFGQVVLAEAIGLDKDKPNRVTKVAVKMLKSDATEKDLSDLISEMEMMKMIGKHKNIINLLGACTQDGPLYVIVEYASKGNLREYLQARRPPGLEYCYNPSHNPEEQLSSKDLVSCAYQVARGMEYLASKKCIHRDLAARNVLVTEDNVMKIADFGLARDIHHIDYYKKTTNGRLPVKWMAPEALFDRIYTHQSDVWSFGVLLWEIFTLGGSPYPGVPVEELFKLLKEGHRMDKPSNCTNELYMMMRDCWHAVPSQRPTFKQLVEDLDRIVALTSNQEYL
From the text: as §1

[6] = target: C-src kinase (Homo sapiens, UniProt P12931); experiment: C-src kinase assay; assay type: biochemical
Chain of C-src kinase (P12931 whole entry, the tested form may be a part): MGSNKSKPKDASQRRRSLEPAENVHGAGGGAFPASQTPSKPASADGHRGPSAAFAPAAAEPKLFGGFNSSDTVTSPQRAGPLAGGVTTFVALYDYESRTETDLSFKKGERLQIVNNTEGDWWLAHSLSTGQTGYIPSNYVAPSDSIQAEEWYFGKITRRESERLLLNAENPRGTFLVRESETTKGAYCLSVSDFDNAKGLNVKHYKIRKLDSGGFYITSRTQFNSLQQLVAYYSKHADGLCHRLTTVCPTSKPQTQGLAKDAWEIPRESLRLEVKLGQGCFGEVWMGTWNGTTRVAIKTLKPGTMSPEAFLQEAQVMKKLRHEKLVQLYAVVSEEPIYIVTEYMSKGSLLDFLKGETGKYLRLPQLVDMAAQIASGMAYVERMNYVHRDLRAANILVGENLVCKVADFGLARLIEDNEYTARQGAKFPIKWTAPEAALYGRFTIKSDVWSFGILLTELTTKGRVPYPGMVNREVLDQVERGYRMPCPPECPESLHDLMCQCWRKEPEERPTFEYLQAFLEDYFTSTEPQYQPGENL
Experimental: C-src kinase was purified from baculovirus infected insect cell lysates using an antipeptide monoclonal antibody directed against the N-terminal amino acids (amino acids 2–17) of c-src. The antibody, covalently linked to 0.65 μm latex beads, was added to a suspension of insect cell lysis buffer comprised of 150 mM NaCl, 50 mM Tris pH 7.5, 1 mM DTT, 1% NP-40, 2 mM EGTA, 1 mM sodium vanadate, 1 mM PMSF, 1 μg/mL each of leupeptin, pepstatin, and aprotinin. Insect cell lysate containing c-src protein was incubated with these beads for 3 to 4 hours at 4° C. with rotation. At the end of the lysate incubation, the beads were rinsed three times in lysis buffer, resuspended in lysis buffer containing 10% glycerol, and frozen. These latex beads were thawed, rinsed three times in assay buffer (40 mM Tris, pH 7.5, 5 mM mgCl2) and suspended in the same buffer. In a Millipore 96-well plate with a 0.65 μm polyvinylidine membrane bottom were added the reaction components: 10 μL C-src beads, 10 μL of 2.5 mg/mL poly GluTyr substrate, 5 μM ATP containing 0.2 μCi labeled ^32P-ATP, 5 μL DMSO containing inhibitors or as a solvent control, and buffer to make the final volume 125 μL. The reaction was started at room temperature by addition of the ATP and quenched 10 minutes later by the addition of 125 μL of 30% TCA, 0.1 M sodium pyrophosphate for 5 minutes on ice. The plate was then filtered and the wells washed with two […] aliquots of 15% TCA, 0.1 M pyrophosphate. The filters were then punched, counted in a liquid scintillation counter, and the data examined for inhibitory activity in comparison to a known inhibitor such as erbstatin. The method is also described in J. Med. Chem., 1994;37:598–609.

[7] = target: cdk2/cyclinE (Homo sapiens, UniProt P24941); experiment: Cyclin-dependent kinase assay cdk2/cyclinE; assay type: biochemical; conditions: cyclin dependent kinase 2/cyclin E complex; read-out: CDK2E IC50
Experimental: as §2

[8] = target: cdc2/cyclinB (Homo sapiens, UniProt P06493); experiment: Cyclin-dependent kinase assay cdc2/cyclinB; assay type: biochemical; conditions: cyclin dependent kinase 1/cyclin B complex; read-out: CDK1B IC50
Chain of cdc2/cyclinB (P06493 whole entry, species assumed): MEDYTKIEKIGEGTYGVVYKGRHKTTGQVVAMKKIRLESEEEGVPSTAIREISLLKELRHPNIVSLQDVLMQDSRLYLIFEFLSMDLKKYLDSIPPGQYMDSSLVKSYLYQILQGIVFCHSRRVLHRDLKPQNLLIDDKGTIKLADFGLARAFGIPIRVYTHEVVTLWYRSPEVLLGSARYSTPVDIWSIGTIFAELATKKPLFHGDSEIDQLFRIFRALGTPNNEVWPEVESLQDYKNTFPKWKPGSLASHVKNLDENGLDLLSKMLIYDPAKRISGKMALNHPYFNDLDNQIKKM
Chain of cdc2/cyclinB (P14635 whole entry partner, species assumed): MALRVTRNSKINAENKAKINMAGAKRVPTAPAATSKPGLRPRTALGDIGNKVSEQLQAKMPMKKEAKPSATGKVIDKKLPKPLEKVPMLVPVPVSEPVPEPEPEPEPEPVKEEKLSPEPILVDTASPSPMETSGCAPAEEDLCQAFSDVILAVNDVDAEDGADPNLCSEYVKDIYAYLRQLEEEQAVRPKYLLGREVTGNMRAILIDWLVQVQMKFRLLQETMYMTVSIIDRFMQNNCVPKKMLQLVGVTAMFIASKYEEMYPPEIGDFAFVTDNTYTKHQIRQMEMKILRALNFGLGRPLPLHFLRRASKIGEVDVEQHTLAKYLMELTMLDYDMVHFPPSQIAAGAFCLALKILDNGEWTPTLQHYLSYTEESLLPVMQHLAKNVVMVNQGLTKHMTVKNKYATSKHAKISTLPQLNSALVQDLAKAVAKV
Experimental: as §2

T1 sequence (P05622 599-961 limits assumed): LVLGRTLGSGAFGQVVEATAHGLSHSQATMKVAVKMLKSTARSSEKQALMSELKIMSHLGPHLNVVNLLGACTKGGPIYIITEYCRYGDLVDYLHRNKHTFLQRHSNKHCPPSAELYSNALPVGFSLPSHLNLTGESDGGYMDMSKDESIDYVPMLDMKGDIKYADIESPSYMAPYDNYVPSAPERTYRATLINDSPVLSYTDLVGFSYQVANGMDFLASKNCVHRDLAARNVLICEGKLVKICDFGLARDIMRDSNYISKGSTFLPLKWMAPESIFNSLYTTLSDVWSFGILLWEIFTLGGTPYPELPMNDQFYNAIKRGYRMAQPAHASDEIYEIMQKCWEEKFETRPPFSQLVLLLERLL

Compound	IC50 [1] [µM]	IC50 [2] [µM]	IC50 [3] [µM]	IC50 [4] [µM]	inhibition at 0.5 µM [5] [%]	IC50 [6] [µM]	melting point [°C]	IC50 [7] [µM]	inhibition at 5 µM [5] [%]	IC50 [8] [µM]	inhibition at 50 µM ([5]; @ 50 (unit μm)) [%]	PDGF % @ concentration ([1]; @ 5 (unit μm)) [% @ 5]
CN1CCN(c2ccc(Nc3ncc4ncc(=O)n(C5CCCC5)c4n3)cc2)CC1 [Compound 8, 8-Cyclopentyl-2-[[4-(4methylpiperazin-1-yl)phenyl]amino]-8H-pteridin-7-one]	6	> 50	0.041	0.26	41	3.35	208 to 211	0.95				
O=c1cnc2cnc(Nc3ccc(N4CCOCC4)cc3)nc2n1C1CCCC1 [Compound 7, 8-Cyclopentyl-2-[[4-(morpholin-4-yl)phenyl]amino]-8H-pteridin-7-one]	12	> 50	0.06	0.064		8.47	182 to 184	0.65	33			
O=c1cnc2cnc(Nc3ccc(N4CCNCC4)cc3)nc2n1C1CCCC1 [Compound 16, 8-Cyclopentyl-2-[[4-(piperazin-1-yl)phenyl]amino]-8H-pteridin-7-one]			0.007	0.18		3.3		0.61		0.75		
O=c1cnc2cnc(Nc3ccncc3)nc2n1C1CCCC1 [Compound 11, 8-Cyclopentyl-2-[(pyridin-4-yl)amino]-8H-pteridin-7-one]	> 50	> 50	1.25	0.036		11	236 to 238	0.05	31	0.354		
CC(C)(C)OC(=O)N1CCN(c2ccc(Nc3ncc4ncc(=O)n(C5CCCC5)c4n3)cc2)CC1 [Compound 52, 2-[[4-[4(tert-Butoxycarbonyl)piperazin-1-yl]phenyl]amino]-8-cyclopentyl-8H-pteridin-7-one]			1.8	0.53		> 50	215 to 217	4.5				
Cc1nc2cnc(Nc3ccc(N4CCOCC4)cc3)nc2n(C2CCCC2)c1=O [Compound 10, 8-Cyclopentyl-6-methyl-2-[[4-(morpholin-4-yl)phenyl]amino]-8H-pteridin-7-one]	> 50	> 50	0.44	1.84		34	230 to 234	8			57	
NC1CCN(c2ccc(Nc3ncc4ncc(=O)n(C5CCCC5)c4n3)cc2)C1 (centres unmarked) [Compound 17, 2-[[4-(3-Aminopyrrolidin-1-yl)phenyl]amino]-8-cyclopentyl-8H-pteridin-7-one]	2.19		0.0435	0.094				1.9		0.4		
Cc1nc2cnc(Nc3ccc(N4CCN(C)CC4)cc3)nc2n(C2CCCC2)c1=O [Compound 9, 8-Cyclopentyl-6methyl-2-[[4-(4-methylpiperazin-1-yl)phenyl]amino]-8H-pteridin-7-one]		> 50	0.047	2.78	41	3	210 to 211	41				59
